Here are results for two molecules from ChEMBL document CHEMBL6120946, “From Hit to Lead: Discovery of First-In-Class Furanone Glycoside D228 Derived from Chimonanthus salicifolius for the Treatment of Inflammatory Bowel Disease” (J Med Chem, 2024).

Calls of active or inactive are those of the source. The rule behind the calls is not given here. Bounds are passed on as bounds.

Data set [1] in a line: Toxicity in male Kunming mouse assessed as effect on liver to body weight ratio at 100 to 500 mg/kg/day, po measured after 5 weeks. The note with it: in vivo, 840 h, dose 100-500 mg/kg/day. The format is organism-based.
In data set [2] the test system is Mus musculus. In words: Antiinflammatory activity in DSS-induced male C57BL/6 mouse model assessed as inhibition of IL-22 level in colon at 50 to 100 microM/Kg. The format is functional, organism-based. Conditions: dose 50-100 µM/Kg.
The subject of data set [3] is Mus musculus. Nature of the data set: Antiinflammatory activity in DSS-induced male C57BL/6 mouse model of inflammatory bowel disease assessed as reduction in weight loss at 22.5 to 45 mg/kg/day, po via gavage measured upto 14 days. The data set is classed as functional, organism-based. The note with it: dose 22.5-45 mg/kg/day, time <= 14.0 day.
Data set [4] is described as follows: Toxicity in female Kunming mouse assessed as effect on kidney to body weight ratio at 100 to 500 mg/kg/day, po measured after 5 weeks. The format is organism-based. The note with it: in vivo, 840 h, dose 100-500 mg/kg/day.
A short description of data set [5]: Metabolic stability in dog plasma assessed as half life at pH 7.4 measured upto 60 mins by HPLC-MS analysis. The format is ADME, cell-free, Canis lupus familiaris.
A short description of data set [6]: Toxicity in female Kunming mouse assessed as effect on GGT level in serum at 100 to 500 mg/kg/day, po measured after 5 weeks. The format is organism-based. Conditions: in vivo, 840 h, dose 100-500 mg/kg/day.
The nature of data set [7]: Genotoxicity in erythrocyte (unknown origin) by Erythrocyte micronucleus test. The format is toxicity, cell-based.
The nature of data set [8]: Toxicity in male Kunming mouse assessed as effect on GLU level in serum at 100 to 500 mg/kg/day, po measured after 5 weeks. The format is organism-based. Conditions: in vivo, 840 h, dose 100-500 mg/kg/day.
Data set [9] is described as follows: Drug metabolism in mouse liver microsomes assessed as phoenicein formation measured after 5 mins in presence of NADPH by LC/MS/MS analysis. The data set is classed as ADME, Microsome.
A short description of data set [10]: Toxicity in female Kunming mouse assessed as effect on TP level in serum at 100 to 500 mg/kg/day, po measured after 5 weeks. The data set is classed as organism-based. Conditions: in vivo, 840 h, dose 100-500 mg/kg/day.
The nature of data set [11]: Acute toxicity in male Kunming mouse assessed as effect on lung 5 g/Kg, po measured after 5 weeks. Conditions: in vivo, 5000 mg/kg, 840 h. The format is organism-based.
Data set [12] can be described thus: Toxicity in male Kunming mouse assessed as effect on lung to body weight ratio at 100 to 500 mg/kg/day, po measured after 5 weeks. The format is organism-based. The note with it: in vivo, 840 h, dose 100-500 mg/kg/day.
Data set [13] in a line: Toxicity in female Kunming mouse assessed as effect on GLU level in serum at 100 to 500 mg/kg/day, po measured after 5 weeks. The format is organism-based. Conditions: in vivo, 840 h, dose 100-500 mg/kg/day.
Data set [14] in a line: Toxicity in female Kunming mouse assessed as effect on liver at 100 to 500 mg/kg/day, po measured after 5 weeks by H and E staining based analysis. The data set is classed as organism-based. Conditions: in vivo, 840 h, dose 100-500 mg/kg/day.
Data set [15] is described as follows: Toxicity in male Kunming mouse assessed as effect on heart at 100 to 500 mg/kg/day, po measured after 5 weeks by H and E staining based analysis. The format is organism-based. Conditions: in vivo, 840 h, dose 100-500 mg/kg/day.
Data set [16] deals with Mus musculus. In words: Antiinflammatory activity in DSS-induced male C57BL/6 mouse model assessed as inhibition of IL-6 level in colon at 50 to 100 microM/Kg. The note with it: dose 50-100 µM/Kg. The format is functional, organism-based.
Data set [17] in a line: Toxicity in female Kunming mouse assessed as effect on ALP level in serum at 100 to 500 mg/kg/day, po measured after 5 weeks. The data set is classed as organism-based. Conditions: in vivo, 840 h, dose 100-500 mg/kg/day.
For data set [18], the system named is Mus musculus. In words: Antiinflammatory activity in DSS-induced male C57BL/6 mouse model of inflammatory bowel disease assessed as upregulation of ZO-1 expression in colon at 50 to 100 microM/Kg by immunohistochemical analysis. The format is functional, organism-based. The note with it: dose 50-100 µM/Kg.
Data set [19] in a line: Toxicity in female Kunming mouse assessed as lethal dose administered as po measured after 5 weeks. The data set is classed as organism-based. The note with it: in vivo.
Data set [20] in a line: Acute toxicity in male Kunming mouse assessed as effect on kidney 5 g/Kg, po measured after 5 weeks. Conditions: in vivo, 5000 mg/kg, 840 h. The format is organism-based.
Data set [21] in a line: Toxicity in male Kunming mouse assessed as effect on heart to body weight ratio at 100 to 500 mg/kg/day, po measured after 5 weeks. The format is organism-based. Conditions: in vivo, 840 h, dose 100-500 mg/kg/day.
A short description of data set [22]: Toxicity in male Kunming mouse assessed as effect on ALT level in serum at 100 to 500 mg/kg/day, po measured after 5 weeks. The format is organism-based. Conditions: in vivo, 840 h, dose 100-500 mg/kg/day.
Data set [23] is described as follows: Toxicity in male Kunming mouse assessed as effect on T-CHO level in serum at 100 to 500 mg/kg/day, po measured after 5 weeks. The data set is classed as organism-based. Conditions: in vivo, 840 h, dose 100-500 mg/kg/day.
The nature of data set [24]: Acute toxicity in male Kunming mouse assessed as effect on heart 5 g/Kg, po measured after 5 weeks. The format is organism-based. Conditions: in vivo, 5000 mg/kg, 840 h.
Data set [25] deals with Mus musculus. Nature of the data set: Antiinflammatory activity in DSS-induced male C57BL/6 mouse model of inflammatory bowel disease assessed as restoration of colon length at 40 mg/kg/day, po via gavage measured after 14 days relative to control. The note with it: time 14 day. The format is functional.
Data set [26] is described as follows: Acute toxicity in female Kunming mouse assessed as effect on liver 5 g/Kg, po measured after 5 weeks. The format is organism-based. The note with it: in vivo, 5000 mg/kg, 840 h.
A short description of data set [27]: Toxicity in female Kunming mouse assessed as effect on spleen at 100 to 500 mg/kg/day, po measured after 5 weeks by H and E staining based analysis. The format is organism-based. Conditions: in vivo, 840 h, dose 100-500 mg/kg/day.
The nature of data set [28]: Toxicity in male Kunming mouse assessed as effect on spleen at 100 to 500 mg/kg/day, po measured after 5 weeks by H and E staining based analysis. The data set is classed as organism-based. Conditions: in vivo, 840 h, dose 100-500 mg/kg/day.
The subject of data set [29] is Mus musculus. In words: Antiinflammatory activity in DSS-induced male C57BL/6 mouse model of inflammatory bowel disease assessed as increase in colon length at 15 mg/kg/day, po via gavage measured upto 14 days relative to control. The data set is classed as functional. Conditions: time <= 14 day.
Data set [30] is filed under the species Mus musculus. Nature of the data set: Antiinflammatory activity in DSS-induced male C57BL/6 mouse model of inflammatory bowel disease assessed as reduction in JNK level. The data set is classed as functional, organism-based.
Data set [31] deals with Mus musculus. Nature of the data set: Antiinflammatory activity in DSS-induced male C57BL/6 mouse model of inflammatory bowel disease assessed as amelioration of structural loss of colon at 50 to 200 microM/Kg by H and E staining based analysis. The data set is classed as functional, organism-based. Conditions: dose 50-200 µM/Kg.
Data set [32] concerns Mus musculus. Nature of the data set: Antiinflammatory activity in DSS-induced male C57BL/6 mouse model of inflammatory bowel disease assessed as amelioration of crypts disruption at 50 to 200 microM/Kg by H and E staining based analysis. The data set is classed as functional, organism-based. The note with it: dose 50-200 µM/Kg.
Data set [33] deals with Mus musculus. In words: Antiinflammatory activity in DSS-induced male C57BL/6 mouse model assessed as effect on JNK phosphorylation level at 50 to 200 microM/Kg by Western blot analysis. The data set is classed as functional, organism-based. Conditions: dose 50-200 µM/Kg.
Data set [34] deals with Mus musculus. In words: Antiinflammatory activity in DSS-induced male C57BL/6 mouse model assessed as increase in IL-10 level in colon at 50 to 200 microM/Kg. Conditions: dose 50-200 µM/Kg. The data set is classed as functional, organism-based.
Data set [35] deals with Mus musculus. In words: Antiinflammatory activity in DSS-induced male C57BL/6 mouse model of inflammatory bowel disease assessed as recovery from body weight loss at 40 mg/kg/day, ip measured after 14 days relative to control. The data set is classed as functional. The note with it: time 14 day.
For data set [36], the species on record is Mus musculus. Nature of the data set: Antiinflammatory activity in DSS-induced male C57BL/6 mouse model of inflammatory bowel disease assessed as reduction in IRF5 level. The data set is classed as functional, organism-based.
Data set [37] has as its system Mus musculus. Nature of the data set: Antiinflammatory activity in DSS-induced male C57BL/6 mouse model of inflammatory bowel disease assessed as increase in colon length at 10 mg/kg/day, ip measured after 14 days relative to control. The data set is classed as functional. Conditions: time 14 day.
Data set [38] deals with Mus musculus. In words: Antiinflammatory activity in DSS-induced male C57BL/6 mouse model of inflammatory bowel disease assessed as reduction of bloody stool at 15 to 60 mg/kg/day, po via gavage measured upto 14 days. The data set is classed as functional, organism-based. The note with it: dose 15-60 mg/kg/day, time <= 14.0 day.
Data set [39] deals with Mus musculus. In words: Antiinflammatory activity in DSS-induced male C57BL/6 mouse model assessed as inhibition of IL-17A level in colon at 50 to 200 microM/Kg. The format is functional, organism-based. Conditions: dose 50-200 µM/Kg.

On to `CC(=O)OC[C@H]1O[C@@H](OC2=C(C)OC(=C(C)C)C2=O)[C@H](OC(C)=O)[C@@H](OC(C)=O)[C@@H]1OC(C)=O`, for which the Activity result in data set [1], in [4], in data set [6], in data set [7], in data set [8] and in [10] was “Non-toxic” throughout. For the same molecule, the Activity result in [11], in data set [12], in data set [13], in [14], in data set [15] and in [17] was “Non-toxic” throughout. Further, the Activity result in [20] is recorded as “Non-toxic”; in [21], “Non-toxic”; in [22] it was “Non-toxic”; in data set [23], “Non-toxic”; in data set [24], “Non-toxic”; in the data set on Mus musculus [25] it was 28.6%. Besides, the Activity result in data set [26], in [27] and in data set [28] was “Non-toxic” throughout. In addition, the result in the data set with Mus musculus [2], in the data set on Mus musculus [3], in the data set with Mus musculus [16] and in the data set with Mus musculus [18] was Active. Moreover, in data set [5], the half-life was determined as 32.5 min. Moreover, the Drug metabolism entry in data set [9] is “metabolite_detected”. The LD50 at 840 h in data set [19] was over 500 mg/kg.

Consider `CC(C)=C1OC(C)=C(O[C@@H]2O[C@H](CO)[C@@H](O)[C@H](O)[C@H]2O)C1=O`, for which the Activity was 79.1% in the data set with Mus musculus [29], 56.2% with Mus musculus [35] and 20.4% in the data set on Mus musculus [37]. The result in the data set listed under Mus musculus [30], in the data set on Mus musculus [31], in the data set with Mus musculus [32], in the data set with Mus musculus [34], in the data set listed under Mus musculus [36] and in the data set with Mus musculus [38] was Active. Besides, the result in the data set on Mus musculus [39] was Active. For the same molecule, the outcome with Mus musculus [33] was inactive.
